In ChEMBL document CHEMBL5653631, “A Potent and Selective ULK1 Inhibitor Suppresses Autophagy and Sensitizes Cancer Cells to Nutrient Stress” (iScience, 2018):

How the values were obtained:
[1] = biological target: Serine/threonine-protein kinase MRCK alpha (Homo sapiens) (UniProt Q5VT25); assay: Inhibition of human recombinant MRCKa at 500 nM related to control ULK1
[2] = biological target: Dual specificity protein kinase CLK3 (Homo sapiens) (UniProt P49761); assay: Inhibition of human recombinant CLK3 at 500 nM in presence of ATP by radiometric assay relative to control
[3] = biological target: Tyrosine-protein kinase JAK2 (Homo sapiens) (UniProt O60674); assay: Inhibition of human recombinant JAK2 at 500 nM in presence of ATP by radiometric assay relative to control
[4] = biological target: Misshapen-like kinase 1 (Homo sapiens) (UniProt Q8N4C8); assay: Inhibition of human recombinant MINK at 500 nM in presence of ATP by radiometric assay relative to control
[5] = biological target: Casein kinase II subunit alpha' (Homo sapiens) (UniProt P19784); assay: Inhibition of human recombinant CK2a2 at 500 nM in presence of ATP by radiometric assay relative to control
[6] = biological target: Cyclin-dependent kinase 2 (Homo sapiens) (UniProt P24941); assay: Inhibition of human recombinant CDK2 at 500 nM in presence of ATP by radiometric assay relative to control
[7] = biological target: Cyclin-dependent kinase-like 1 (Homo sapiens) (UniProt Q00532); assay: Inhibition of human recombinant CDKL1 at 500 nM in presence of ATP by radiometric assay relative to control
[8] = biological target: Proto-oncogene tyrosine-protein kinase ROS (Homo sapiens) (UniProt P08922); assay: Inhibition of human recombinant ROS at 500 nM related to control ULK1
[9] = biological target: Serine/threonine-protein kinase WNK1 (Homo sapiens) (UniProt Q9H4A3); assay: Inhibition of human recombinant Wnk1 at 15 nM in presence of ATP by radiometric assay relative to control
[10] = biological target: Protein kinase C iota type (Homo sapiens) (UniProt P41743); assay: Inhibition of human recombinant PKCi at 15 nM in presence of ATP by radiometric assay relative to control
[11] = biological target: T1, Ephrin type-B receptor 4 (Homo sapiens) (UniProt P54760); assay: Inhibition of human recombinant EphB4 at 15 nM in presence of ATP by radiometric assay relative to control
T1 sequence (whole entry): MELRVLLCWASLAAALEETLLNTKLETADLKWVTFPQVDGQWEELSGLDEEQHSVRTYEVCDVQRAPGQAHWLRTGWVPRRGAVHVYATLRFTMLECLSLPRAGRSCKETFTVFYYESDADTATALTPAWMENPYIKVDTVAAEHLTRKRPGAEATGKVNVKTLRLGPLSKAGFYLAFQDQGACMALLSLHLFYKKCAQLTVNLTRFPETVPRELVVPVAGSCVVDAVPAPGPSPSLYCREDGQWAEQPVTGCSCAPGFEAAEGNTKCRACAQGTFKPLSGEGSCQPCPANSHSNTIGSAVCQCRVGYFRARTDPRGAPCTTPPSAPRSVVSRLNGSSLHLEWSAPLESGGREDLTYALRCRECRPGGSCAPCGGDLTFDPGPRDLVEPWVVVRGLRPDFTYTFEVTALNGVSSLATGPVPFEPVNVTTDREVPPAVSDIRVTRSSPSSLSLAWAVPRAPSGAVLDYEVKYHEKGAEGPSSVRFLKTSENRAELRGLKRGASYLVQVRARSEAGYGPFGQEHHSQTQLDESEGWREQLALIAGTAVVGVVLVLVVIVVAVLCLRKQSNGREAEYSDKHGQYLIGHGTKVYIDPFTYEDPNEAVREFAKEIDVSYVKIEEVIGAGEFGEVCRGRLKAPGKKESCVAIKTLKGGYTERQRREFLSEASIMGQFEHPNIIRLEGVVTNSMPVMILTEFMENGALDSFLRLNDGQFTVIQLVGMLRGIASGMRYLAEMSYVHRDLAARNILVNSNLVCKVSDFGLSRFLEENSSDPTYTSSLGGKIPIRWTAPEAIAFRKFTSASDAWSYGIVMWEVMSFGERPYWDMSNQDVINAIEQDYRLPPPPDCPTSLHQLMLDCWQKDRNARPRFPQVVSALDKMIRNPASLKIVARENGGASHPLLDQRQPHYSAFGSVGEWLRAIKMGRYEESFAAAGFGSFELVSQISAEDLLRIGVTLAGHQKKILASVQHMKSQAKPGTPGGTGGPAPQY

[12] = biological target: Calcium/calmodulin-dependent protein kinase type II subunit gamma (Homo sapiens) (UniProt Q13555); assay: Inhibition of human recombinant CaMK2g at 15 nM related to control ULK1
[13] = biological target: Platelet-derived growth factor receptor beta (Homo sapiens) (UniProt P09619); assay: Inhibition of human recombinant PDGFRb at 15 nM in presence of ATP by radiometric assay relative to control
[14] = biological target: Serine/threonine-protein kinase/endoribonuclease IRE1 (Homo sapiens) (UniProt O75460); assay: Inhibition of human recombinant IRE1 at 15 nM related to control ULK1
[15] = biological target: T2, Dual specificity tyrosine-phosphorylation-regulated kinase 3 (Homo sapiens) (UniProt O43781); assay: Inhibition of human recombinant DYRK3 at 40 nM in presence of ATP by radiometric assay relative to control
T2 sequence (whole entry): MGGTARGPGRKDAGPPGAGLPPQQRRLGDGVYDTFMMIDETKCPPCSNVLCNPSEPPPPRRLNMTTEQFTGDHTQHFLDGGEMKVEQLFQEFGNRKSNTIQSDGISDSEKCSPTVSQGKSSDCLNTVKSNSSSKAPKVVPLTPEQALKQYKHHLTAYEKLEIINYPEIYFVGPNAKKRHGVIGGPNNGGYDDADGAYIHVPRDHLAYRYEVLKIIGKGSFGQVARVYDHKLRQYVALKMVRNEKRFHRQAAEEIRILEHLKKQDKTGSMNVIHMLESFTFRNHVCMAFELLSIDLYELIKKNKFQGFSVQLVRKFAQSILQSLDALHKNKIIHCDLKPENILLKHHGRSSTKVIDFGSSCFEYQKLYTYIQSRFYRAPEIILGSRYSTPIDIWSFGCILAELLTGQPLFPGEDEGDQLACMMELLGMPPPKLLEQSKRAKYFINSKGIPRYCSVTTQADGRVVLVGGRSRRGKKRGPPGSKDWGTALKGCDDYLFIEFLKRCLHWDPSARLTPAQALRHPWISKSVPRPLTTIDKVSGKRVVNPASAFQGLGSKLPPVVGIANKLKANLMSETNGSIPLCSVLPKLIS

[16] = biological target: Glycogen synthase kinase-3 alpha (Homo sapiens) (UniProt P49840); assay: Inhibition of human recombinant GSK3A at 40 nM in presence of ATP by radiometric assay relative to control
[17] = biological target: Platelet-derived growth factor receptor alpha (Homo sapiens) (UniProt P16234); assay: Inhibition of human recombinant PDGFRa at 40 nM related to control ULK1
[18] = biological target: Casein kinase I isoform gamma-1 (Homo sapiens) (UniProt Q9HCP0); assay: Inhibition of human recombinant CK1g1 at 40 nM in presence of ATP by radiometric assay relative to control

Sequence of Cyclin-dependent kinase-like 1 (Homo sapiens) (Q00532 whole entry): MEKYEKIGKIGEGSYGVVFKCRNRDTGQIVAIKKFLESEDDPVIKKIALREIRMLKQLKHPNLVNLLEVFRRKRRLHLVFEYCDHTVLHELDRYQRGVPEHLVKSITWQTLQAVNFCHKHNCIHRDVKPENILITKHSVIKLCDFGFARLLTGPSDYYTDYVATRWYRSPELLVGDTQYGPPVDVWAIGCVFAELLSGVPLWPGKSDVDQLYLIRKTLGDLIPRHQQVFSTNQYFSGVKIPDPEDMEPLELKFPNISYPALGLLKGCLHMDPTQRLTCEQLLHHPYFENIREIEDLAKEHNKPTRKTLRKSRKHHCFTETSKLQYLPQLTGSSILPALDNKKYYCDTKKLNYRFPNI
Sequence of Misshapen-like kinase 1 (Homo sapiens) (Q8N4C8 whole entry, looked up): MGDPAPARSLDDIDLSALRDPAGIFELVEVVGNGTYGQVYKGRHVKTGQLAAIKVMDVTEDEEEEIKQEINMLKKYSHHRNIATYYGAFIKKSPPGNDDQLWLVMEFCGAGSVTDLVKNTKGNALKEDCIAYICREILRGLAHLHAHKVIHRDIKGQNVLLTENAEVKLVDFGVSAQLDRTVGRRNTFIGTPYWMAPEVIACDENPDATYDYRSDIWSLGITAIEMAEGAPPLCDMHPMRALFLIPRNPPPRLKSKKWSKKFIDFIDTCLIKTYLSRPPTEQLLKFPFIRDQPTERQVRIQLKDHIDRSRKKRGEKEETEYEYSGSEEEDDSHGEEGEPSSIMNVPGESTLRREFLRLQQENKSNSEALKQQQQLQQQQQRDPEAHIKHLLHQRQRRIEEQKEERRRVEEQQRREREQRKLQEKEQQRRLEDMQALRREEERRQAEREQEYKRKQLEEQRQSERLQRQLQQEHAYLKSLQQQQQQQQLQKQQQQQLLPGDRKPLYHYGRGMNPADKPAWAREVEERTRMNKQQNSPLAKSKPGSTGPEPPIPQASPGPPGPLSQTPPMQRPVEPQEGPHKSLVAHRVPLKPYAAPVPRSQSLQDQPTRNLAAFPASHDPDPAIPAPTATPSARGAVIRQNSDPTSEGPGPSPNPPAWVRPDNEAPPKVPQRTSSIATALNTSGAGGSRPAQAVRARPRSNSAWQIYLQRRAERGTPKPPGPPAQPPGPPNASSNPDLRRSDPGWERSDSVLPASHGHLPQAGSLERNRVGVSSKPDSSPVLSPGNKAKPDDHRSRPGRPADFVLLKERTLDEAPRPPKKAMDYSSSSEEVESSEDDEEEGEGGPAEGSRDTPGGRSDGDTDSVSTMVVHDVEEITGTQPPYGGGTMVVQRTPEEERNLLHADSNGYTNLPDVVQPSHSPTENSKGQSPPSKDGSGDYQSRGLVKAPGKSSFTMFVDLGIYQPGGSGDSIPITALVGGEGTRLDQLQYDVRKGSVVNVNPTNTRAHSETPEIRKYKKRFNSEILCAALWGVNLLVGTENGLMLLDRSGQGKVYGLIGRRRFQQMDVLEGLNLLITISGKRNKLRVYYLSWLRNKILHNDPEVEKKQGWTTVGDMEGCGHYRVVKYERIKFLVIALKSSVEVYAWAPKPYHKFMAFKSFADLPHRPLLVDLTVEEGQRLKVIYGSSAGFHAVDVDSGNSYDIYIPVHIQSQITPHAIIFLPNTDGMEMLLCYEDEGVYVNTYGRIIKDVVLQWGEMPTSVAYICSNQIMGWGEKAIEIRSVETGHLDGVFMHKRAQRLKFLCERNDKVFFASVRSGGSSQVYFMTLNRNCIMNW
Sequence of Tyrosine-protein kinase JAK2 (Homo sapiens) (O60674 whole entry): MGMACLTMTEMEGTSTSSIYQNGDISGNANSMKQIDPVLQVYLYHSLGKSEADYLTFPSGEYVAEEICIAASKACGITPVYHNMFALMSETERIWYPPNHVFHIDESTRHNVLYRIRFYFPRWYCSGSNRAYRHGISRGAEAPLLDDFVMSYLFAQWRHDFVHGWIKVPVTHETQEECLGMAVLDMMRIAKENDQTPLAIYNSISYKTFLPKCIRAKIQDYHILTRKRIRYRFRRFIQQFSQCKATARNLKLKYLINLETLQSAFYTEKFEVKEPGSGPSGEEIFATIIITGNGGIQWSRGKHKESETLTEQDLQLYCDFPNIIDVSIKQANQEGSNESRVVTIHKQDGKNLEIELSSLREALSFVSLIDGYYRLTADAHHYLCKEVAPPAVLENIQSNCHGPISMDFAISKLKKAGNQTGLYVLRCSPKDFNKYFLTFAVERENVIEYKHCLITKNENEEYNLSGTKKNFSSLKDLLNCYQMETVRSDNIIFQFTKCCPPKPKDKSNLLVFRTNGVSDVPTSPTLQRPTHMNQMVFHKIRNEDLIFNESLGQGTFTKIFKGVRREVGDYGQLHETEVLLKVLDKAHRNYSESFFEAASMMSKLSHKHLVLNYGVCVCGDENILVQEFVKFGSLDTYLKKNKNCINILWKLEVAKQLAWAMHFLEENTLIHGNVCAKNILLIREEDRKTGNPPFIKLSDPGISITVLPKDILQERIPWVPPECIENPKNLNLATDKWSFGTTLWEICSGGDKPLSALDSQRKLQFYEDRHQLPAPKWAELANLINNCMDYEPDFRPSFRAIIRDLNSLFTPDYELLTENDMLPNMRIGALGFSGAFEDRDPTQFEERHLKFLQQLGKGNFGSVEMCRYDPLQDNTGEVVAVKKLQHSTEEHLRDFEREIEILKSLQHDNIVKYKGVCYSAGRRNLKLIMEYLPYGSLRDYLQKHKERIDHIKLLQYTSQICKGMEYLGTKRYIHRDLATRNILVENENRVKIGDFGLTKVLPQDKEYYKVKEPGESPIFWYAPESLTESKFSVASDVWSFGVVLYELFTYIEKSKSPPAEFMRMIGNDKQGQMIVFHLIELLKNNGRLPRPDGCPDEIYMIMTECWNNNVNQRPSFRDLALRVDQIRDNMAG
Sequence of Serine/threonine-protein kinase MRCK alpha (Homo sapiens) (Q5VT25 whole entry): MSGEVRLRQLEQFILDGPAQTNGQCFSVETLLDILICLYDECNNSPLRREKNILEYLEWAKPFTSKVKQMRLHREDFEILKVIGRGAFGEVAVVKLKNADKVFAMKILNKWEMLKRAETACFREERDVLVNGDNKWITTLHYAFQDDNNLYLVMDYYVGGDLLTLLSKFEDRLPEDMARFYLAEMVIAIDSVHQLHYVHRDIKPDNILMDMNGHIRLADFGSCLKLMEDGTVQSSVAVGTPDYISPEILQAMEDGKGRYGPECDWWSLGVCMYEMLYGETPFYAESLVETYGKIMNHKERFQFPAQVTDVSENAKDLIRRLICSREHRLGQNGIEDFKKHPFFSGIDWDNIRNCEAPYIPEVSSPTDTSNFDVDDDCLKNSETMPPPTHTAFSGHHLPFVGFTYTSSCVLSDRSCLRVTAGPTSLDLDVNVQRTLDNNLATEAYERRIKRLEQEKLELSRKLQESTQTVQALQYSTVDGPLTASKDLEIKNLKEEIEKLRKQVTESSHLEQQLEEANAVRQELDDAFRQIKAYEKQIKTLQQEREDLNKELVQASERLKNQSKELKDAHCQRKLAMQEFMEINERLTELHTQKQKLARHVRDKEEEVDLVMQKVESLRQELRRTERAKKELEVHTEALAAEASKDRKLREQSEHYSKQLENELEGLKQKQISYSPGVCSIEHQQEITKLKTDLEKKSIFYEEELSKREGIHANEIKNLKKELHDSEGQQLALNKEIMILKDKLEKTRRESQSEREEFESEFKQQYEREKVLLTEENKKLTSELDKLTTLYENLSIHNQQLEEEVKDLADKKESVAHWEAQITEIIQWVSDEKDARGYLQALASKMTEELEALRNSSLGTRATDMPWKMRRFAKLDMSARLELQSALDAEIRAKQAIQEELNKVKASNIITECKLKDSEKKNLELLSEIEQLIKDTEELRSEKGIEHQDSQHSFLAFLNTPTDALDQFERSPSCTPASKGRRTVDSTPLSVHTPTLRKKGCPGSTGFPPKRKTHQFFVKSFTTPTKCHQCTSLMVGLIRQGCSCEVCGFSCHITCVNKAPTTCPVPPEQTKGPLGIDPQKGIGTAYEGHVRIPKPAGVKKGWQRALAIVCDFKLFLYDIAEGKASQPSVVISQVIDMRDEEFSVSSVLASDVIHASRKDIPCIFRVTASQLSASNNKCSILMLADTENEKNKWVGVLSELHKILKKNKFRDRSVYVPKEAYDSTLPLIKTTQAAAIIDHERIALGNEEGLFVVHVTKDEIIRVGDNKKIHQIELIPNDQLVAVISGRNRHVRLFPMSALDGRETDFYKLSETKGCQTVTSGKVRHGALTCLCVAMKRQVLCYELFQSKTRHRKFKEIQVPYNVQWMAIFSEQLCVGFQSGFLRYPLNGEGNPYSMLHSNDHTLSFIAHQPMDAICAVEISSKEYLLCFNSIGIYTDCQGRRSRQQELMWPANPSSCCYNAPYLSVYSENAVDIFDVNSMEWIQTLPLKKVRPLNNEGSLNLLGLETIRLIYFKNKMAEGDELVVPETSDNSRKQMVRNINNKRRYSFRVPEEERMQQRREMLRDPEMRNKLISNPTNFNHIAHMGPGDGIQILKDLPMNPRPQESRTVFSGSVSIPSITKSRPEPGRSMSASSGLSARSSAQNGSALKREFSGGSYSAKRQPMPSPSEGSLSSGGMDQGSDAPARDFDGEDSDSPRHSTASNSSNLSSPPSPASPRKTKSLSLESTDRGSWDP
Sequence of Calcium/calmodulin-dependent protein kinase type II subunit gamma (Homo sapiens) (Q13555 whole entry): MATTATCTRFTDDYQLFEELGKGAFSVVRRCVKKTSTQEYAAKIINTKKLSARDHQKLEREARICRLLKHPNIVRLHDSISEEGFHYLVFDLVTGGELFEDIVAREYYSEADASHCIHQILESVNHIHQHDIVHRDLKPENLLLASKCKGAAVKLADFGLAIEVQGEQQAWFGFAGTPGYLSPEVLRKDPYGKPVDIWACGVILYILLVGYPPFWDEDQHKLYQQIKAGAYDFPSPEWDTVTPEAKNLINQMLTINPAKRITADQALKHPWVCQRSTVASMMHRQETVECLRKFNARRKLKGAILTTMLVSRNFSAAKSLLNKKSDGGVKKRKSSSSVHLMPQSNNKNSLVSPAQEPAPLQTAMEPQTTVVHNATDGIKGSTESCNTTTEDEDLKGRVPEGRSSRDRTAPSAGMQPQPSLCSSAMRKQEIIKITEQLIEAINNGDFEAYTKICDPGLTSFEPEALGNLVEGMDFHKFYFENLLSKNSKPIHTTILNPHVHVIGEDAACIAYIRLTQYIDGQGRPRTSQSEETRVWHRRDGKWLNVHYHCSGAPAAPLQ

In the case of `CNC(=O)c1ccccc1Oc1nc(Nc2cc(OC)c(OC)c(OC)c2)ncc1Br`, the fold change (FC) [1] was 0.09, the inhibition [2] was 0% and the inhibition [3] was 78%. For the same molecule, the inhibition [4] was 4%, the inhibition [5] was 5% and the inhibition [6] was 4%. For the same molecule, the inhibition [7] was 0% and the fold change (FC) [8] was 0.
`CC(C)[C@H](NC(=O)c1cc(-c2cnn3cc(-c4ccc(OCCN5CCCCC5)cc4)cnc23)cs1)C(F)(F)F` was tested, and the inhibition [9] was 4%, the inhibition [10] was 4% and the inhibition [11] was 3%. It also gave a fold change (FC) [12] of 0.25, an inhibition [13] of 0% and a fold change (FC) [14] of 0.
Work on `O=C(N[C@@H](C1CC1)C(F)(F)F)c1cc(-c2cnn3cc(-c4ccc(F)cc4)cnc23)cs1` yielded an inhibition [15] of 30%, an inhibition [16] of 0% and a fold change (FC) [17] of 0. The inhibition [18] was 0%.
